Key:
PDGFRA = molecular target: T1, PDGFRA (Homo sapiens, UniProt P16234); experiment: KinomeScan; assay type: binding; details: read-out: % Control
T1 construct: purchased DiscoveRx (Fremont, CA)

MLK1 = molecular target: T2, MLK1 (Homo sapiens, UniProt P80192); experiment: KinomeScan; assay type: binding; details: read-out: % Control
T2 construct: purchased DiscoveRx

GAL1 = molecular target: T3, GAL1 (Homo sapiens, UniProt P47211); experiment: GPCR Profiler; assay type: cell-based
T3 construct: host or cells: Chem-1 cells expressing Gα15
T3 sequence (P47211 whole entry): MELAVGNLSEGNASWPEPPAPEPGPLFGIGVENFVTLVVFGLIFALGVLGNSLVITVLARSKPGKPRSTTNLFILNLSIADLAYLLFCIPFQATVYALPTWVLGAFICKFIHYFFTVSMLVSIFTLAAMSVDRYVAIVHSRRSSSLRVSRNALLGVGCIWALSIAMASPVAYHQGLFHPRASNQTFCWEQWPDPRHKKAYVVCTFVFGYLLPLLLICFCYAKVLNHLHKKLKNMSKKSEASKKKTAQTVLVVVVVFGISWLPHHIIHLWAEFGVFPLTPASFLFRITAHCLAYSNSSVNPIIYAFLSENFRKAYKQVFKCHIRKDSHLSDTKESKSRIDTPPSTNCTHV

MAPKAPK2 = molecular target: T4, MAPKAPK2 (Homo sapiens, UniProt P49137); experiment: KinomeScan; assay type: binding; details: read-out: % Control
T4 construct: purchased DiscoveRx (Fremont, CA)

PCTK2 = molecular target: T5, PCTK2 (Homo sapiens, UniProt Q00537); experiment: KinomeScan; assay type: binding; details: read-out: % Control
T5 construct: purchased DiscoveRx

ACVR2B = molecular target: T6, ACVR2B (Homo sapiens, UniProt Q13705); experiment: KinomeScan; assay type: binding; details: read-out: % Control
T6 construct: purchased DiscoveRx

PRKG2 = molecular target: T7, PRKG2 (Homo sapiens, UniProt Q13237); experiment: KinomeScan; assay type: binding; details: read-out: % Control
T7 construct: purchased DiscoveRx (Fremont, CA)

NOP = molecular target: T8, NOP (Homo sapiens, UniProt P41146); experiment: GPCR Profiler; assay type: cell-based
T8 construct: host or cells: Chem-1 cells expressing Gα15

ADRA1A = molecular target: T9, ADRA1A (Homo sapiens, UniProt P35348); experiment: GPCR Profiler; assay type: cell-based
T9 construct: host or cells: Chem-1 cells with promiscuous Gα15
T9 sequence (P35348 whole entry): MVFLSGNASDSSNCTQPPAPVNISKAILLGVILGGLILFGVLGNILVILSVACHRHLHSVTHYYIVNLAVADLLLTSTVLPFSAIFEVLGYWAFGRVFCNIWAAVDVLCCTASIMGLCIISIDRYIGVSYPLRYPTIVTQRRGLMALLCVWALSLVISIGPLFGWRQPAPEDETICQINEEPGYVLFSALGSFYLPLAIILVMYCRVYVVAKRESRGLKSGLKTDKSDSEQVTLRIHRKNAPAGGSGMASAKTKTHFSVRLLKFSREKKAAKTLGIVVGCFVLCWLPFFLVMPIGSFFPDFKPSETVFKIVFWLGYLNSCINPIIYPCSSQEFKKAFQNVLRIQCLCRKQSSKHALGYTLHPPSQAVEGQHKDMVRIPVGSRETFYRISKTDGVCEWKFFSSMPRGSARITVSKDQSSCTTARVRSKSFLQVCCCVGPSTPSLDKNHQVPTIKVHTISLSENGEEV

CASK = molecular target: T10, CASK (Homo sapiens, UniProt O14936); experiment: KinomeScan; assay type: binding; details: read-out: % Control
T10 construct: purchased DiscoveRx (KinomeScan service)

M1 = molecular target: T11, M1 (Homo sapiens, UniProt P11229); experiment: GPCR Profiler; assay type: cell-based
T11 construct: host or cells: Chem-1 cells with promiscuous Gα15
T11 sequence (P11229 whole entry): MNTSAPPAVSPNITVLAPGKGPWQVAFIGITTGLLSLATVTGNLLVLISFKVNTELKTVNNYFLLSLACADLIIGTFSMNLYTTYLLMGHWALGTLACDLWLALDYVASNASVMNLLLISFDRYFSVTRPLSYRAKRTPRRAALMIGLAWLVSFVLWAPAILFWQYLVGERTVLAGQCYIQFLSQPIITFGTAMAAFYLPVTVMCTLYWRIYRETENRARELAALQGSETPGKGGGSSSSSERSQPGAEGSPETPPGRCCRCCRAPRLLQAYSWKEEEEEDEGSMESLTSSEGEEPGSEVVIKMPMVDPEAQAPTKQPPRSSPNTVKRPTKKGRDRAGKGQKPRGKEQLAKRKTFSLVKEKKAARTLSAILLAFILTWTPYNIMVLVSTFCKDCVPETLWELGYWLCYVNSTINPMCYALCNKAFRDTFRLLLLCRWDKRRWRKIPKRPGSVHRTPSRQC

GLP-1 = molecular target: T12, GLP-1 (Homo sapiens, UniProt P43220); experiment: GPCR Profiler; assay type: cell-based
T12 construct: host or cells: Chem-1 cells expressing Gα15
T12 sequence (P43220 24-463): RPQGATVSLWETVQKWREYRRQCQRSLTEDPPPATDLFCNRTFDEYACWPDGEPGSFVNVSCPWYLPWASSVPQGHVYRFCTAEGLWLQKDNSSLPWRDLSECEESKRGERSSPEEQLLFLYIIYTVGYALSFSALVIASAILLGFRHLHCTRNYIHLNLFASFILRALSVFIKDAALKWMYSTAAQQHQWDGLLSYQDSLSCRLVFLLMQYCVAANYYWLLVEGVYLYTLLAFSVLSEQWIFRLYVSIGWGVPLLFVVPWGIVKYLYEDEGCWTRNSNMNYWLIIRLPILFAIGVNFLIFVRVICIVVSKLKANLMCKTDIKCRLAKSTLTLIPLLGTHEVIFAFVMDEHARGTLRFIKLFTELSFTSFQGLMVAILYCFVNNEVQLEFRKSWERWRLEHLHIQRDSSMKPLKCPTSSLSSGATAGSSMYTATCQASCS

H2 = molecular target: T13, H2 (Homo sapiens, UniProt P25021); experiment: GPCR Profiler; assay type: cell-based
T13 construct: host or cells: Chem-1 cells with promiscuous Gα15
T13 sequence (P25021 whole entry): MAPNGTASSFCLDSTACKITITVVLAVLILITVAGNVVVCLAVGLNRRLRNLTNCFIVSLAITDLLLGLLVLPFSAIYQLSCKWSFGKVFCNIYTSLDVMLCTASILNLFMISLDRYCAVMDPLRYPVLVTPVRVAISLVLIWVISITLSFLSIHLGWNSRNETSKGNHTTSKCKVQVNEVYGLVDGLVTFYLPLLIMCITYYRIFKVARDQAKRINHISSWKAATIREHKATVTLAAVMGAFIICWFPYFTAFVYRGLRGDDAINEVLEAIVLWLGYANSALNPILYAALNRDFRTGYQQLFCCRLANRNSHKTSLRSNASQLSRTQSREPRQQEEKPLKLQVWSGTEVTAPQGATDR

mGlu2 = molecular target: T14, mGlu2 (Homo sapiens, UniProt Q14416); experiment: GPCR Profiler; assay type: cell-based
T14 construct: host or cells: Chem-1 cells expressing Gα15
T14 sequence (Q14416 19-872): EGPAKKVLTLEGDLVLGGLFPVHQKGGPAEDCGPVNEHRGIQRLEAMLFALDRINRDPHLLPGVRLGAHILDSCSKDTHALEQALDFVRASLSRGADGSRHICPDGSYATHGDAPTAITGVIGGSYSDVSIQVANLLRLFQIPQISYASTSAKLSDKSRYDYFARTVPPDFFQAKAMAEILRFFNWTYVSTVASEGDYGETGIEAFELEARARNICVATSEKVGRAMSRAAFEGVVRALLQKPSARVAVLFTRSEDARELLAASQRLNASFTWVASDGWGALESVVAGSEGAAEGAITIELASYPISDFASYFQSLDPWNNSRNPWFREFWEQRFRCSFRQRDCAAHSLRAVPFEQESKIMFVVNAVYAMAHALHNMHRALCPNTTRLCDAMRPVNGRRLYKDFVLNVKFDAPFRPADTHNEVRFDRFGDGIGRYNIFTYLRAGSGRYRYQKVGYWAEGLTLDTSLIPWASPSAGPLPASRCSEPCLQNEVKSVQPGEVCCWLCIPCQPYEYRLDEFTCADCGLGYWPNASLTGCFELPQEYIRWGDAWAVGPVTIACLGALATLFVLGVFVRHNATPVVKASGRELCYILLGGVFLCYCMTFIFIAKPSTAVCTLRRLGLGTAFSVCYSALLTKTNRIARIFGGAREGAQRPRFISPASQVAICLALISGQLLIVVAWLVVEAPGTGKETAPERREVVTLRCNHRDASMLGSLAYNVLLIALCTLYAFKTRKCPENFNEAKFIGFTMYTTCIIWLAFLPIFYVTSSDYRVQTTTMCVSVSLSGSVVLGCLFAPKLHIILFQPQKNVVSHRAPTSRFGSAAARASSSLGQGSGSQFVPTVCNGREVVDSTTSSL

BRK = molecular target: T15, BRK (Homo sapiens, UniProt Q13882); experiment: KinomeScan; assay type: binding; details: read-out: % Control
T15 construct: purchased DiscoveRx (Fremont, CA)

VEGFR2 = molecular target: T16, VEGFR2 (Homo sapiens, UniProt P35968); experiment: KinomeScan; assay type: binding; details: read-out: % Control
T16 construct: purchased DiscoveRx

PCTK1 = molecular target: T17, PCTK1 (Homo sapiens, UniProt Q00536); experiment: KinomeScan; assay type: binding; details: read-out: % Control
T17 construct: purchased DiscoveRx

MLCK = molecular target: T18, MLCK (Homo sapiens, UniProt Q32MK0); experiment: KinomeScan; assay type: binding; details: read-out: % Control
T18 construct: purchased DiscoveRx

TAK1 = molecular target: T19, TAK1 (Homo sapiens, UniProt O43318); experiment: KinomeScan; assay type: binding; details: read-out: % Control
T19 construct: purchased DiscoveRx (Fremont, CA)

SRMS = molecular target: T20, SRMS (Homo sapiens, UniProt Q9H3Y6); experiment: KinomeScan; assay type: binding; details: read-out: % Control
T20 construct: purchased DiscoveRx (Fremont, CA)

CSNK1G3 = CSNK1G3 (Homo sapiens, UniProt Q9Y6M4); experiment: KinomeScan; assay type: binding; details: read-out: % Control
BRSK1 = molecular target: T21, BRSK1 (Homo sapiens, UniProt Q8TDC3); experiment: KinomeScan; assay type: binding; details: read-out: % Control
T21 construct: purchased DiscoveRx (KinomeScan service)

EIF2AK1 = molecular target: T22, EIF2AK1 (Homo sapiens, UniProt Q9BQI3); experiment: KinomeScan; assay type: binding; details: read-out: % Control
T22 construct: purchased DiscoveRx (Fremont, CA)

XCR1 = molecular target: T23, XCR1 (Homo sapiens, UniProt P46094); experiment: GPCR Profiler; assay type: cell-based
T23 construct: host or cells: Chem-1 cells expressing Galpha15
T23 sequence (P46094 whole entry, species assumed): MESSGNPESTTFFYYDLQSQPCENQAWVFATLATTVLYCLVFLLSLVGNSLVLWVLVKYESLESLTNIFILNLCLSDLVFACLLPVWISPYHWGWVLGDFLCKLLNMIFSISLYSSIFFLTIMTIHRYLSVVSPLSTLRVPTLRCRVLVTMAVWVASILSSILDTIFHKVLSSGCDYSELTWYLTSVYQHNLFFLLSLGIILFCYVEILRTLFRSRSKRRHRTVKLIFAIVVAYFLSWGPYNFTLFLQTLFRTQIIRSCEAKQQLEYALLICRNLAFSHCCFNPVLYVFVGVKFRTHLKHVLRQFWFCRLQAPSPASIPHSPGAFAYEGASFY

LPA3 = molecular target: T24, LPA3 (Homo sapiens, UniProt Q9UBY5); experiment: GPCR Profiler; assay type: cell-based
T24 construct: host or cells: Chem-1 cells with promiscuous Gα15
T24 sequence (Q9UBY5 whole entry, species assumed): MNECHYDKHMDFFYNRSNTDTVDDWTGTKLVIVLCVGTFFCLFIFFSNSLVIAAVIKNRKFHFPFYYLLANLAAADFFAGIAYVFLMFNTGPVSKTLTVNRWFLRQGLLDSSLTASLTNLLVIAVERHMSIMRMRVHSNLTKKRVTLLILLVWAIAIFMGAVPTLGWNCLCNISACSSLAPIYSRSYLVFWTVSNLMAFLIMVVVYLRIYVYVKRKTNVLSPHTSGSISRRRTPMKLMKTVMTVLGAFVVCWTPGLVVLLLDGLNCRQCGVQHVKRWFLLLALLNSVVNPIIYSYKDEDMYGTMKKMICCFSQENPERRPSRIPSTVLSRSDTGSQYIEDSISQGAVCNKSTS

PIK3CG = molecular target: T25, PIK3CG (Homo sapiens, UniProt P48736); experiment: KinomeScan; assay type: binding; details: read-out: % Control
T25 construct: purchased DiscoveRx (Fremont, CA)

MLK2 = molecular target: T26, MLK2 (Homo sapiens, UniProt Q02779); experiment: KinomeScan; assay type: binding; details: read-out: % Control
T26 construct: purchased DiscoveRx

PLK3 = molecular target: T27, PLK3 (Homo sapiens, UniProt Q9H4B4); experiment: KinomeScan; assay type: binding; details: read-out: % Control
T27 construct: purchased DiscoveRx (Fremont, CA)

WEE2 = molecular target: T28, WEE2 (Homo sapiens, UniProt P0C1S8); experiment: KinomeScan; assay type: binding; details: read-out: % Control
T28 construct: purchased DiscoveRx

5-HT4B = molecular target: T29, 5-HT4B (Homo sapiens, UniProt Q13639); experiment: GPCR Profiler; assay type: cell-based
T29 construct: host or cells: Chem-1 cells with promiscuous Gα15
T29 sequence (Q13639 whole entry): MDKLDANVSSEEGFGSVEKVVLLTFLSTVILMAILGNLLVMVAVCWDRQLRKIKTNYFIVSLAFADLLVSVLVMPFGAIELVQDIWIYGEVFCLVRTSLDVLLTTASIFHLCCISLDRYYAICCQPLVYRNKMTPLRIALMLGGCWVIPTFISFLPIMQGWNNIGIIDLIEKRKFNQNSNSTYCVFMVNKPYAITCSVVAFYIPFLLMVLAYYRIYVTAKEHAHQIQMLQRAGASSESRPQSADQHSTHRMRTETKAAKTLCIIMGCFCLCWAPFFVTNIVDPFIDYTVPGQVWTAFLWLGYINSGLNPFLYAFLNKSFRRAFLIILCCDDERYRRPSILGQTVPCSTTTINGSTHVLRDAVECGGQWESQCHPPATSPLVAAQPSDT

p38-gamma = molecular target: T30, p38-gamma (Homo sapiens, UniProt P53778); experiment: KinomeScan; assay type: binding; details: read-out: % Control
T30 construct: purchased DiscoveRx

OPRK1 = molecular target: T31, OPRK1 (Homo sapiens, UniProt P41145); experiment: GPCR Profiler; assay type: cell-based
T31 construct: host or cells: Chem-1 cells expressing Gα15
T31 sequence (P41145 whole entry, species assumed): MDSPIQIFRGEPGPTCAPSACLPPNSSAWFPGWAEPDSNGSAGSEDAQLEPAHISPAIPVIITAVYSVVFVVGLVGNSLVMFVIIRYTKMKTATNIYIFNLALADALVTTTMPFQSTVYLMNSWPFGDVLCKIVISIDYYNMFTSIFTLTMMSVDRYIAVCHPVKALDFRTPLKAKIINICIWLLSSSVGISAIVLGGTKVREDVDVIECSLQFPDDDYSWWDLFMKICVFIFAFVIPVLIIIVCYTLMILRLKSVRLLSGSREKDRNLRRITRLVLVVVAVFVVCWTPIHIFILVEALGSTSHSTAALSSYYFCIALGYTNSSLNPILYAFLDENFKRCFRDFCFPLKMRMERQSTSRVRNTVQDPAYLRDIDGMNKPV

[1] = molecular target: T32, JAK3(JH1domain-catalytic) (Homo sapiens, UniProt P52333); experiment: KinomeScan; assay type: binding; details: read-out: % Control
T32 construct: JAK3(JH1domain-catalytic); purchased DiscoveRx (Fremont, CA)

GPR109A = molecular target: T33, GPR109A (Homo sapiens, UniProt Q8TDS4); experiment: GPCR Profiler; assay type: cell-based
T33 construct: host or cells: Chem-1 cells expressing Gα15
T33 sequence (Q8TDS4 whole entry): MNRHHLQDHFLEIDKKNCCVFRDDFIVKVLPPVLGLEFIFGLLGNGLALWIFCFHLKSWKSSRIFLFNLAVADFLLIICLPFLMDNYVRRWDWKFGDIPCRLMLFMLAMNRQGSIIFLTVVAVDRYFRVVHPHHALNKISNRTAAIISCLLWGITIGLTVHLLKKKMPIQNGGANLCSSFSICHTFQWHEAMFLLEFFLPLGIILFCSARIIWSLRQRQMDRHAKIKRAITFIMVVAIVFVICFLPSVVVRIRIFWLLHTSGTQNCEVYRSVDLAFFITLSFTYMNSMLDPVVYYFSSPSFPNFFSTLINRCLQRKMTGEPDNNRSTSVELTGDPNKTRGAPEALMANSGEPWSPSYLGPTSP

LZK = molecular target: T34, LZK (Homo sapiens, UniProt O43283); experiment: KinomeScan; assay type: binding; details: read-out: % Control
T34 construct: purchased DiscoveRx

GRK4 = molecular target: T35, GRK4 (Homo sapiens, UniProt P32298); experiment: KinomeScan; assay type: binding; details: read-out: % Control
T35 construct: purchased DiscoveRx (Fremont, CA)

STK16 = molecular target: T36, STK16 (Homo sapiens, UniProt O75716); experiment: KinomeScan; assay type: binding; details: read-out: % Control
T36 construct: purchased DiscoveRx (Fremont, CA)

Molecule `CCc1ccc2c(c1)C1(NN=C(c3cccc4ccccc34)S1)C(=O)N2` (stereo not shown) [OGM1, 5-ethyl-5′-naphthalen-1-ylspiro[1H-indole-3,2′-3H-1,3,4-thiadiazole]-2-one] has a remaining binding at 10 µM (PDGFRA) of 100%, a remaining binding at 10 µM (MLK1) of 100% and an Antagonism (GAL1; 10 uM) of −7.3. For the same molecule, the Agonism (GAL1; 12.5 uM) was 1.6, the remaining binding at 10 µM (MAPKAPK2) was 100% and the remaining binding at 10 µM (PCTK2) was 100%. The remaining binding at 10 µM (ACVR2B) was 100%, the remaining binding at 10 µM (PRKG2) was 91% and the Antagonism (NOP; 10 uM) was −1.9. It also gave an Agonism (NOP; 12.5 uM) of 0.2, an Antagonism (ADRA1A; 10 uM) of 3 and an Agonism (ADRA1A; 12.5 uM) of 1.9. The remaining binding at 10 µM (CASK) was 90%, the Antagonism (M1; 10 uM) was −3.3 and the Agonism (M1; 12.5 uM) was 0.8. It also gave an Antagonism (GLP-1; 10 uM) of 2.1, an Agonism (GLP-1; 12.5 uM) of −0.3 and an Antagonism (H2; 10 uM) of 1.3. For the same molecule, the Agonism (H2; 12.5 uM) was 0.1, the Antagonism (mGlu2; 10 uM) was −1.2 and the Agonism (mGlu2; 12.5 uM) was −0.4. The remaining binding at 10 µM (BRK) was 100%, the remaining binding at 10 µM (VEGFR2) was 100% and the remaining binding at 10 µM (PCTK1) was 77%. The remaining binding at 10 µM (MLCK) was 100%, the remaining binding at 10 µM (TAK1) was 72% and the remaining binding at 10 µM (SRMS) was 80%. The remaining binding at 10 µM (CSNK1G3) was 100%, the remaining binding at 10 µM (BRSK1) was 100% and the remaining binding at 10 µM (EIF2AK1) was 100%. The Antagonism (XCR1; 10 uM) was 1.8, the Agonism (XCR1; 12.5 uM) was 0.1 and the Antagonism (LPA3; 10 uM) was 1.1. It also gave an Agonism (LPA3; 12.5 uM) of 0.3, a remaining binding at 10 µM (PIK3CG) of 100% and a remaining binding at 10 µM (MLK2) of 100%. The remaining binding at 10 µM (PLK3) was 100%, the remaining binding at 10 µM (WEE2) was 100% and the Antagonism (5-HT4B; 10 uM) was −24.1. For the same molecule, the Agonism (5-HT4B; 12.5 uM) was 4.1, the remaining binding at 10 µM (p38-gamma) was 94% and the Antagonism (OPRK1; 10 uM) was −8.1. For the same molecule, the Agonism (OPRK1; 12.5 uM) was 4.3, the remaining binding at 10 µM [1] was 84% and the Antagonism (GPR109A; 10 uM) was 20.3. For the same molecule, the Agonism (GPR109A; 12.5 uM) was −0.2, the remaining binding at 10 µM (LZK) was 100% and the remaining binding at 10 µM (GRK4) was 96%. It also gave a remaining binding at 10 µM (STK16) of 88%.

— patent US20240327364A1, “THERAPEUTIC TARGETING OF GPR68 TO INDUCE FERROPTOSIS” (University Of Maryland, Baltimore, priority 2023, published 2024)
